Entries after “also recorded” stand apart in the source; their conditions may differ.
What was measured:
yeast and mold = assay: Yeast and mold growth (CFU) on whole poultry carcasses after spray treatment, day 1 versus day 7; type: cell-based; settings: for log growth in yeast and mold over 7 days: day 7 minus day 1 log average
Protocol: (§1) The following solutions were prepared. A cetylpyridinium chloride (CPC) solution was prepared by combining 1.0 g of cetylpyridinium chloride (CAS No. 123-03-05) in 100 mL of water to form a nominal 1.0 wt % CPC test solution. An epsilon-polylysine (EPL) solution was prepared by combining 4.3 g epsilon-polylysine (CAS No. 25104-18-1) in water to form 100 mL of aqueous solution to form a nominal 4.3 wt % EPL test solution. The combination test solution was prepared by combining 1.0 g of cetylpyridinium chloride and 4.3 g epsilon-polylysine in water to form 100 mL of aqueous solution to form a standard concentration combination solution, and 3.7 g of this standard concentration solution was diluted up to 100 mL to form a combination test solution, which is diluted roughly 27-fold from the from the standard concentration solution.
(§2) The following test method was used. Whole poultry carcasses were collected from the processing line following evisceration and rinse. The carcasses were then treated with the CPC, EPL, or combined CPC+EPL products and dilution rates as listed above, using a Lillard spray application for 5 seconds. Following 10 seconds of dwell time, a 25 gram sample of the product was collected and immediately tested to establish a control sample set-point, and 325 grams of the same carcass were incubated at 37° C. for 168 hours (7 days). Following the incubation cycle, a second 25 gram sample was collected from the 325 gram control for testing evaluation of yeast and mold growth. A second 25 gram composite sample was collected from the same 325 gram control for pathogenic testing for salmonella presence. All samples were tested using AOAC accredited methods in an AOAC accredited API examined laboratory. Confirmation (split) samples were processed at ABC Research Laboratory.

Salmonella = assay: Pathogenic testing for salmonella presence on treated poultry carcass samples after 7 day incubation; type: cell-based; settings: for salmonella prevalence rate (samples tested positive): after 7 day incubation
Protocol: as §1, §2

| Compound | log growth in yeast and mold over 7 days (yeast and mold; CPC (1.0%) only) [log] | Log Avg, CPC Day 7 (yeast and mold; average of 10 samples, cetylpyridinium chloride (1.0%), after 7 days at 37° C.) | Log Avg, CPC Day 1 (yeast and mold; average of 10 samples, cetylpyridinium chloride (1.0%), day 1 set-point) | salmonella prevalence rate (samples tested positive) (Salmonella; CPC (1.0%) only) [%] | log growth in yeast and mold over 7 days (yeast and mold; EPL (4.3%) only) [log] | Log Avg, EPL Day 7 (yeast and mold; average of 10 samples, ε-poly-L-lysine (4.3%), after 7 days at 37° C.) | Log Avg, EPL Day 1 (yeast and mold; average of 10 samples, ε-poly-L-lysine (4.3%), day 1 set-point) | seven-day samples tested positive for Salmonella (Salmonella; EPL (4.3%) only, 10 samples) | salmonella prevalence rate (samples tested positive) (Salmonella; EPL (4.3%) only) [%] | Salmonella, EPL Day 7 (Salmonella; ε-poly-L-lysine (4.3%), after 7 days at 37° C.) |
| --- | --- | --- | --- | --- | --- | --- | --- | --- | --- | --- |
| CCCCCCCCCCCCCCCC[n+]1ccccc1 [CPC, cetylpyridinium chloride] | 4.995 | 7.264 | 2.269 | 20 | – | – | – | – | – | – |
| ε-poly-L-lysine [EPL] | – | – | – | – | 3.677 | 6.97 | 3.293 | 4 of 10 | 40 | NEGATIVE; also recorded: POSITIVE |

Source: US8962662B2, “Antimicrobial compositions and methods of use thereof” (Byocoat Enterprises, Inc., priority 2011, dated 2015)
